{"source": "paper PMC13129536", "about": "(The Journal of Biological Chemistry, 2026)", "tested_on": "Mtb (mc^26030)", "assay_type": "cell-based, Mycobacterium tuberculosis", "conditions": "combined with meropenem", "data": [{"smiles": "c1ccc(-c2nc3cc(Cc4ccc5[nH]c(-c6ccccn6)nc5c4)ccc3[nH]2)nc1", "note": "[Compound F0850-5995]", "values": [{"measurement": "FICA (apparent FIC)", "result": "greater than 5.0"}]}, {"smiles": "Cc1ccc(C)c(Nc2nc(NCc3ccccc3)c3ccccc3n2)c1", "note": "[Compound F0909-0124]", "values": [{"measurement": "FICA (apparent FIC)", "result": "greater than 5.0"}]}]}
